Target: T1, human GlyT1c transporter (Homo sapiens, UniProt P48067)
T1 construct: expressed in transfected cells; host or cells: CHO cells (recombinant; line hGlyT1c_5_CHO is named for the uptake assay)
T1 sequence (P48067 1-706): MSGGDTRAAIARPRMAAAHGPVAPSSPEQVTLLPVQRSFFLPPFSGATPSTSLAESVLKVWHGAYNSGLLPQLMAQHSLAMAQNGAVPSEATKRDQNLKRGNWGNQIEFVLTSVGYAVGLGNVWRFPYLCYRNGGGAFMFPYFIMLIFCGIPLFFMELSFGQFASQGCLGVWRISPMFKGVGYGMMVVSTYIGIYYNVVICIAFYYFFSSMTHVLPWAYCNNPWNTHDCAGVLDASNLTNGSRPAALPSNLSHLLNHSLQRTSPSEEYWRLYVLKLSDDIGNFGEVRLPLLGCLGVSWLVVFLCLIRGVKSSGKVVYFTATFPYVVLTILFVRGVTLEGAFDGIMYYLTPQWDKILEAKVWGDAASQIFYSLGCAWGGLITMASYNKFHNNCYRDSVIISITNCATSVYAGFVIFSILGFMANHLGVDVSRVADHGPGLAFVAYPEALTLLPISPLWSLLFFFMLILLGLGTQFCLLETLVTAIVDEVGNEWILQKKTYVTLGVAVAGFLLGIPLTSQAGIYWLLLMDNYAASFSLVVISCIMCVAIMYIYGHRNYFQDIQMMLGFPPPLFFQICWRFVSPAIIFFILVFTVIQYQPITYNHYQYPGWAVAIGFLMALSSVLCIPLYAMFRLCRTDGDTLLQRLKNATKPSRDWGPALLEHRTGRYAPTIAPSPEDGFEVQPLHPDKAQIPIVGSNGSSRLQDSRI
Assay: Radioligand binding assay using recombinant CHO cell membranes expressing human GlyT1
Conditions: radioligand binding to human GlyT1c transporter-expressing membranes
From the text: 2. Radioligand binding assays using recombinant CHO cell membranes expressing human GlyT1: […]

Structure (SMILES)	Ki [nM]
CC(C)c1cc(N[C@H]2CN(S(=O)(=O)c3cn(C)cn3)C[C@@H]2c2ccc(F)cc2)ccc1Cl [Example 675, (3R,4S)-N-[4-chloro-3-(propan-2-yl)phenyl]-4-(4-fluorophenyl)-1-[(1-methyl-1H-imidazol-4-yl)sulfonyl]pyrrolidin-3-amine]	≤ 1000
Cn1cnc(S(=O)(=O)N2C[C@H](NCCCCC3OCCC(C)(C)O3)[C@@H](c3ccc(F)cc3)C2)c1 (stereo partly drawn) [Example 684, (3R,4S)-N-[4-(4,4-dimethyl-1,3-dioxan-2-yl)butyl]-4-(4-fluorophenyl)-1-[(1-methyl-1H-imidazol-4-yl)sulfonyl]pyrrolidin-3-amine]	≤ 1000
Cc1nc(Cl)cc(N[C@H]2CN(S(=O)(=O)c3cn(C)cn3)C[C@@H]2c2ccc(F)cc2)n1 [Example 690, 6-chloro-N-{(3R,4S)-4-(4-fluorophenyl)-1-[(1-methyl-1H-imidazol-4-yl)sulfonyl]pyrrolidin-3-yl}-2-methylpyrimidin-4-amine]	≤ 1000
Cn1cnc(S(=O)(=O)N2C[C@H](NC(=O)Nc3ccccc3)[C@@H](c3ccc(F)cc3)C2)c1 [Example 692, 1-{(3R,4S)-4-(4-fluorophenyl)-1-[(1-methyl-1H-imidazol-4-yl)sulfonyl]pyrrolidin-3-yl}-3-phenylurea]	≤ 1000
Cn1cnc(S(=O)(=O)N2C[C@H](NC(=O)Oc3ccccc3)[C@@H](c3ccc(F)cc3)C2)c1 [Example 693, phenyl {(3R,4S)-4-(4-fluorophenyl)-1-[(1-methyl-1H-imidazol-4-yl)sulfonyl]pyrrolidin-3-yl}carbamate]	≤ 10000
Cn1cnc(S(=O)(=O)N2C[C@H](NC(=O)Nc3ccccc3Cl)[C@@H](c3ccc(F)cc3)C2)c1 [Example 694, 1-(2-chlorophenyl)-3-{(3R,4S)-4-(4-fluorophenyl)-1-[(1-methyl-1H-imidazol-4-yl)sulfonyl]pyrrolidin-3-yl}urea]	≤ 1000
CC(=O)CCCC(=O)N[C@H]1CN(S(=O)(=O)c2cn(C)cn2)C[C@@H]1c1ccc(F)cc1 [Example 695, N-{(3R,4S)-4-(4-fluorophenyl)-1-[(1-methyl-1H-imidazol-4-yl)sulfonyl]pyrrolidin-3-yl}-5-oxohexanamide]	≤ 10000
Cn1cnc(S(=O)(=O)N2C[C@H](NC(=O)C3CCC(C(F)(F)F)CC3)[C@@H](c3ccc(F)cc3)C2)c1 (stereo partly drawn) [Example 696, N-{(3R,4S)-4-(4-fluorophenyl)-1-[(1-methyl-1H-imidazol-4-yl)sulfonyl]pyrrolidin-3-yl}-4-(trifluoromethyl)cyclohexanecarboxamide]	≤ 10000

Second part, the molecule after the results:

Ki [nM]	Structure (SMILES)
≤ 1000	Cc1cc(N[C@H]2CN(S(=O)(=O)c3cn(C)cn3)C[C@@H]2c2ccc(F)cc2)ccc1C(F)(F)F [Example 676, (3R,4S)-4-(4-fluorophenyl)-1-[(1-methyl-1H-imidazol-4-yl)sulfonyl]-N-[3-methyl-4-(trifluoromethyl)phenyl]pyrrolidin-3-amine]
≤ 1000	Cn1cnc(S(=O)(=O)N2C[C@H](Nc3ccc4ccsc4c3)[C@@H](c3ccc(F)cc3)C2)c1 [Example 677, (3R,4S)-N-(1-benzothiophen-6-yl)-4-(4-fluorophenyl)-1-[(1-methyl-1H-imidazol-4-yl)sulfonyl]pyrrolidin-3-amine]
≤ 1000	Cn1cnc(S(=O)(=O)N2CC(Nc3cccc(OC(F)(F)F)c3)C(C3CCN(C4CC4)CC3)C2)c1 (stereo not shown) [Example 678, -4-(1-cyclopropylpiperidin-4-yl)-1-[(1-methyl-1H-imidazol-4-yl)sulfonyl]-N-[3-(trifluoromethoxy)phenyl]pyrrolidin-3-amine]
≤ 1000	CCCCCCN[C@H]1CN(S(=O)(=O)c2cn(C)cn2)C[C@@H]1C1CCCCO1 (stereo partly drawn) [Example 679, (3R,4S)-N-hexyl-1-[(1-methyl-1H-imidazol-4-yl)sulfonyl]-4-(tetrahydro-2H-pyran-2-yl)pyrrolidin-3-amine]
≤ 100	Cn1cnc(S(=O)(=O)N2C[C@H](Nc3cc(Cl)ncn3)[C@@H](c3ccc(F)cc3)C2)c1 [Example 691, 6-chloro-N-{(3R,4S)-4-(4-fluorophenyl)-1-[(1-methyl-1H-imidazol-4-yl)sulfonyl]pyrrolidin-3-yl}pyrimidin-4-amine]

Source: patent EP2970215B1, “PYRROLIDINE DERIVATIVES, PHARMACEUTICAL COMPOSITIONS CONTAINING THEM, AND THEIR USE IN THERAPY” (AbbVie Deutschland GmbH & Co. KG, priority 2013, dated 2014)
